Measured values: article PMC3289669, “Capacity for Absorption of Water-Soluble Secondary Metabolites Greater in Birds than in Rodents” (PLoS ONE, 2012)
Several values for one entry are separate records, joined by “and”; a condition that tells them apart may be missing. Identical values can stand only once. Like-named read-outs stand apart in the source and are kept apart here.

What was measured:
[1] = in vivo; cited from earlier work
[2] = Fractional absorption of orally administered probes by rodents (urine recovery); type: in vivo, Acomys cahirinus and Acomys russatus; details: for Fractional absorption (f): oral, both rodent species pooled, corrected for post-injection recovery, mean ± SEM
Experimental: (§1) As a measure of passive, paracellular absorption, we used standard methods from pharmacokinetics to measure the whole-organism fractional absorption of water-soluble compounds. As described in more detail, below, metabolically inert probe molecules were injected and also administered orally with a gavage needle to intact animals in separate experiments, and blood and/or urine samples were serially collected and analyzed for the probe molecules by liquid scintillation. Fractional absorption (f) was calculated as [post oral administration AUC]/[ post injection AUC] where AUC = dose-corrected area under the curve of plasma or urine probe amount vs. time. […] In mammals, the probes can be recovered in urine, and estimates of oral absorption take account of possible differential recovery by incorporating data on probes when injected. As shown in Results, recoveries of carbohydrate probes were uniformly high, which is in agreement with measures by others in rats and humans. In birds, plasma is sampled rather than urine, because urine is mixed in the avian cloaca with undigested residue from the intestine. […] In Discussion we elaborate on comparisons between these two procedures and reasons to choose them.
(§2) Also, the rodents were transferred to metabolic cages with wire bottoms and a tray beneath from which to collect clean urine samples. At the beginning of a trial, animals were orally dosed at 1.0% body mass with an isosmotic solution containing L-[^14C]arabinose (∼0.02 µCi/g animal) and either [^3H]3OMD-glucose (∼0.1 µCi/g animal) or [^3H]lactulose (∼0.5 µCi/g animal). Oral dose solutions also contained NaCl (∼90 mM, ∼180 mOsm) and D-glucose (∼90 mM, ∼90 mOsm). NaCl was included in the solution to balance osmolality. Inclusion of Na^+ also provides an essential ion for Na^+-coupled D-glucose absorption, although it is not strictly necessary in this kind of whole-animal study because animals would still absorb nearly all glucose even if the diet is low in Na^+ because additional Na^+ is secreted into the intestinal lumen together with bicarbonate and diffuses from blood. In a separate experimental trial, each animal was injected (0.6% body mass) with isosmotic NaCl solution containing L-[^14C]arabinose (∼0.02 µCi/g animal) and either [^3H]3OMD-glucose (∼0.1 µCi/g animal) or [^3H]lactulose (∼0.1 µCi/g animal). The injection site was the pectoralis muscle in birds and the peritoneal cavity in rodents. Syringes were weighed before and after dosing animals to determine actual dose administered.
(§3) After administration of radiolabeled probes, birds and rodents were returned to their cages, where birds had ad libitum access to fruit and the rodents had ad libitum access to sucrose solution (10% w/w). The purpose was to provide rodents water and some calories and also make them urinate more. Serial blood samples (∼25 µL) were drawn from the brachial vein of birds as described previously at t = 0 (background), 10, 20, 30, 45, 60, 80 or 90, 120, 150 min post-injection or post-oral administration. Plasma was separated using a standard hematocrit centrifuge, placed in scintillation vials and weighed. […] Scintillation cocktail (Quicksafe A, Zinsser, UK) was added and samples were counted for disintegrations per minute (dpm) by liquid scintillation (Packard Tri-Carb 1600 TR scintillation counter, Packard INC., Meriden CT, USA), with corrections for quench and appearance of ^14C counts in the ^3H channel. […]

[3] = Fractional absorption of orally administered probes by yellow-vented bulbul (plasma AUC); type: in vivo, Pycnonotus xanthopygos; details: oral; for Fractional absorption (f): AUCoral/AUCinj, mean ± SEM; for Tmax: Pycnonotus xanthopygos, plasma, read-out: Time of peak plasma level post oral administration (converted)
Experimental: as §1, §2, §3

[4] = Recovery of injected probes in urine, both rodent species pooled; type: in vivo; details: Acomys cahirinus and Acomys russatus (pooled), intraperitoneal, data for both rodent species pooled, post-injection, read-out: Recovery of injected probe in urine, 95% C.I.
Experimental: as §1
Also, the rodents were transferred to metabolic cages with wire bottoms and a tray beneath from which to collect clean urine samples. At the beginning of a trial, animals were orally dosed at 1.0% body mass with an isosmotic solution containing L-[^14C]arabinose (∼0.02 µCi/g animal) and either [^3H]3OMD-glucose (∼0.1 µCi/g animal) or [^3H]lactulose (∼0.5 µCi/g animal). […]
(§4) After administration of radiolabeled probes, birds and rodents were returned to their cages, where birds had ad libitum access to fruit and the rodents had ad libitum access to sucrose solution (10% w/w). […] Scintillation cocktail (Quicksafe A, Zinsser, UK) was added and samples were counted for disintegrations per minute (dpm) by liquid scintillation (Packard Tri-Carb 1600 TR scintillation counter, Packard INC., Meriden CT, USA), with corrections for quench and appearance of ^14C counts in the ^3H channel. […]

[5] = Fractional absorption of orally administered probes by Tristram's grackle (plasma AUC); type: in vivo, Onychognathus tristramii; details: oral; for Fractional absorption (f): AUCoral/AUCinj, mean ± SEM; for Tmax: Onychognathus tristramii, plasma, read-out: Time of peak plasma level post oral administration
Experimental: as §1, §2, §3

[6] = Fractional absorption of orally administered probes, both bird species pooled; type: in vivo, Onychognathus tristramii and Pycnonotus xanthopygos; details: for Fractional absorption (f): oral, both bird species pooled, mean ± SEM
Experimental: as §1
as §2, with “In a separate experimental trial, each animal was injected (0.6% body mass) with isosmotic NaCl solution containing L-[^14C]arabinose (∼0.02 µCi/g animal) and either [^3H]3OMD-glucose (∼0.1 µCi/g animal) or [^3H]lactulose (∼0.1 µCi/g animal). The injection site was the pectoralis muscle in birds and the peritoneal cavity in rodents. Syringes were weighed before and after dosing animals to determine actual dose administered.” left out
as §4

[7] = Mono-exponential fit of plasma probe concentrations after injection, Tristram's grackle; type: in vivo, Onychognathus tristramii; details: dose-corrected plasma concentration, mean ± SEM
Experimental: as §2, with “In a separate experimental trial, each animal was injected (0.6% body mass) with isosmotic NaCl solution containing L-[^14C]arabinose (∼0.02 µCi/g animal) and either [^3H]3OMD-glucose (∼0.1 µCi/g animal) or [^3H]lactulose (∼0.1 µCi/g animal). The injection site was the pectoralis muscle in birds and the peritoneal cavity in rodents. Syringes were weighed before and after dosing animals to determine actual dose administered.” left out
as §4

[8] = Mono-exponential fit of plasma probe concentrations after injection, yellow-vented bulbul; type: in vivo, Pycnonotus xanthopygos; details: dose-corrected plasma concentration, mean ± SEM
Experimental: as §2, with “In a separate experimental trial, each animal was injected (0.6% body mass) with isosmotic NaCl solution containing L-[^14C]arabinose (∼0.02 µCi/g animal) and either [^3H]3OMD-glucose (∼0.1 µCi/g animal) or [^3H]lactulose (∼0.1 µCi/g animal). The injection site was the pectoralis muscle in birds and the peritoneal cavity in rodents. Syringes were weighed before and after dosing animals to determine actual dose administered.” left out
as §4

[9] = Recovery of injected probes in urine of golden spiny mice; type: in vivo; details: Acomys russatus (golden spiny mouse), ip; A. russatus, intraperitoneal injection, cumulative urine recovery, mean ± SEM; read-out: Recovery of injected probe in urine
Experimental: (§5) As a measure of passive, paracellular absorption, we used standard methods from pharmacokinetics to measure the whole-organism fractional absorption of water-soluble compounds. As described in more detail, below, metabolically inert probe molecules were injected and also administered orally with a gavage needle to intact animals in separate experiments, and blood and/or urine samples were serially collected and analyzed for the probe molecules by liquid scintillation. Fractional absorption (f) was calculated as [post oral administration AUC]/[ post injection AUC] where AUC = dose-corrected area under the curve of plasma or urine probe amount vs. time. […] In mammals, the probes can be recovered in urine, and estimates of oral absorption take account of possible differential recovery by incorporating data on probes when injected. […]
as §4

[10] = Recovery of injected probes in urine of common spiny mice; type: in vivo; details: Acomys cahirinus (common spiny mouse), ip; A. cahirinus, intraperitoneal injection, cumulative urine recovery, mean ± SEM; read-out: Recovery of injected probe in urine
Experimental: as §5, §4

[11] = parameters: method as in PMID 18025481; details: rats, cited from earlier work
[12] = parameters: method as in PMID 17644690; details: laboratory rats; cited from earlier work
[13] = parameters: method as in PMID 2167807; details: humans, corrected for incomplete urine recovery; cited from earlier work
[14] = parameters: method as in earlier work; details: house sparrows; cited from earlier work
[15] = parameters: method as in PMID 17644690; details: rock doves; cited from earlier work
[16] = tested on: whole-animal glucose absorption; parameters: method as in PMID 20145981; details: American robins; cited from earlier work
[17] = tested on: whole-animal glucose absorption; parameters: method as in PMID 20145981; details: laboratory rats, cited from earlier work
[18] = rock doves, area under the curve calculations; ref F. D. Cid, E. Caviedes-Vidal and W.H. Karasov, unpubl. observations; cited from earlier work
[19] = rock doves, nicotine in cationic water-soluble form, predicted from MW size-dependence of paracellular absorption
Excerpt: These factors of molecule size, charge, and associated nutrients help define the conditions under which water-soluble SMs may be best absorbed.

O=C[C@@H](O)[C@H](O)[C@@H](O)[C@@H](O)CO [L-glucose]
Share of glucose absorption accounted for by L-glucose (passive) [1]: 50 to >90

OC[C@H]1O[C@@H](O[C@@H]2[C@@H](CO)OC(O)(CO)[C@H]2O)[C@H](O)[C@@H](O)[C@H]1O (mixture of isomers) [lactulose]
Fractional absorption (f) [2]: 0.085±0.021
Fractional absorption (f) [3]: 0.30±0.10
dose excreted [4]: 90 to 97%
Fractional absorption (f) [5]: 0.069±0.011
Fractional absorption (f) [6]: 0.17±0.06

CO[C@@H]([C@H](O)[C@H](O)CO)[C@@H](O)C=O [3-O-methyl-D-glucose]
Fractional absorption (f) [2]: 0.95±0.01
Ratio f L-arabinose/f 3OMD-glucose (proportion of 3OMD-glucose absorption that is passive) ([2]; rodents, corrected for difference in MW): 0.34
A, mono-exponential fit Ct = A e^−αt [7]: 22.6±3.0 mg^−1 plasma
A, mono-exponential fit Ct = A e^−αt [8]: 81.1±10.4 mg^−1 plasma
dose excreted [9]: 93 ± 3%
dose excreted [10]: 100 ± 1%
Tmax [3]: 30 min
Fractional absorption (f) [3]: 0.80±0.19
dose excreted [4]: 96 to 101%
Tmax [5]: 40 to 50 min
Fractional absorption (f) [5]: 0.95±0.08
Ratio f L-arabinose/f 3OMD-glucose (proportion of 3OMD-glucose absorption that is passive) ([6]; birds, corrected for difference in MW): 1
Fractional absorption (f) [6]: 0.88±0.08

C[C@H](O)[C@H](O)[C@@H](O)[C@@H](O)C=O [L-rhamnose]
Fractional absorption ([11]; estimate from serially sampling blood): 0.24±0.03
Fractional absorption ([11]; measured by urine recovery): 0.22±0.03

OC1OC[C@H](O)[C@H](O)[C@H]1O (mixture of isomers) [L-arabinose]
Fractional absorption (f) [12]: 0.34
Fractional absorption (f) [13]: 0.26
Fractional absorption (f) [2]: 0.37
Fractional absorption (f) ([2]; listed as arabinose): 0.37±0.06
A, mono-exponential fit Ct = A e^−αt [7]: 25.1±3.1 mg^−1 plasma
A, mono-exponential fit Ct = A e^−αt [8]: 73.1±4.2 mg^−1 plasma
Tmax [3]: ≤ 10 min
Fractional absorption (f) [3]: 1.10±0.15
dose excreted [4]: 81 to 93%
Fractional absorption (f) [14]: 0.61
Tmax [5]: ≤ 10 min
Fractional absorption (f) [5]: 0.98±0.07
Fractional absorption (f) [6]: 1.03±0.17 and 1.03±0.07
Fractional absorption (f) [15]: 0.61

O=c1c(OC2OC(CO)C(O)C(O)C2O)c(-c2ccc(O)c(O)c2)oc2cc(O)cc(O)c12 (centres unmarked) [isoquercetrin]
Effect on glucose absorption [16]: not in robins
Effect on glucose absorption [17]: significantly decreased glucose absorption

CN1CCC[C@H]1c1cccnc1 [nicotine]
Absorption of a dose [18]: 44±3%
Predicted absorption of a dose [19]: around 40%

O=C(CCc1ccc(O)cc1)c1c(O)cc(O)cc1O[C@@H]1O[C@H](CO)[C@@H](O)[C@H](O)[C@H]1O [phloridzin]
Effect on glucose absorption [16]: did not significantly decrease glucose absorption
Inhibition of whole-animal glucose absorption efficiency ([17]; 10 mM): > 36%
